These results are taken from patent publication US4380512A, “2β-Chloromethyl-2α-methylpenam-3α-carboxylic acid sulfone and salts and esters thereof” (Bristol-Myers Company, priority 1981, dated 1983).

Values after ≈ are worked out from the molar mass of the structure shown. Read-outs that look alike come from different tables or passages of the source.

One series relates to β-lactamase enzyme RTEM. The following applies: cited from earlier work.
The next series deals with C. freundii. In words: Antibacterial activity of ceforanide alone and with BL-P2013, MIC (Table 11). The class given is cell-based. As to conditions: Citrobacter freundii. From the text: (§1) ^a Geometric mean value where applicable.
A further series concerns Citrobacter sp. The description is as above. The class given is cell-based.
Source text: as §1

The next series deals with E. aerogenes. The series is described as above. Type of series: cell-based.
Source text: as §1

The next series has as its system E. cloacae. Described as above. The class given is cell-based. As to conditions: Enterobacter cloacae.
Source text: as §1

For a further series, the system named is M. morganii. Described as above. As to conditions: geometric mean. The class given is cell-based.
Source text: as §1

The subject of a further series is P. aeruginosa. The description is as above. Type of series: cell-based. The following applies: Pseudomonas aeruginosa.
Source text: as §1

For the next series, the system named is P. mirabilis. The series is described as above. As to conditions: Proteus mirabilis. Type of series: cell-based.
Source text: as §1

The subject of a further series is P. rettgeri. The description is as above. Type of series: cell-based. As to conditions: Providencia rettgeri.
Source text: as §1

The subject of another series is P. stuartii. Described as above. The following applies: Providencia stuartii. The class given is cell-based.
Source text: as §1

A further series relates to P. vulgaris. The description is as above. The class given is cell-based. As to conditions: Proteus vulgaris.
Source text: as §1

The test system of another series is S. faecalis. The description is as above. The class given is cell-based. As to conditions: Enterococcus faecalis.
Source text: as §1

Another series relates to S. marcescens. The series is described as above. Type of series: cell-based.
Source text: as §1

The test system of the next series is B. thetaiotaomicron. In words: Anti-Bacteroides activity, MIC by agar dilution (Table 2). Type of series: cell-based. The following applies: A22279, beta-lactamase +. As to the method:
*Minimum inhibitory concentration (MIC) determined by the agar dilution
method using 50X dilutions of 24 hour cultures as inocula dispensed by th
Steer's inoculator. Assay medium composed of Brucella Agar plus 5% laked
sheep blood and 10 mcg/ml vitamin K.

In the next series the test system is Bacteroides species. The description is as above. The class given is cell-based.
Series [1] can be described thus: Blood levels after oral administration to mice (Table 4). Type of series: in vivo. As to conditions: 100 mg/kg oral, 15 min, assay S. aureus A-9606.
The nature of series [2]: in vivo. As to conditions: mouse, po. From the text: Compounds were solubilized in propylene glycol, except for the Hetacillin
A further series relates to E. coli A9675. In words: Therapeutic efficacy of BL-P2043, BL-P2044 and components, oral, infected mice (Table 13). Type of series: in vivo. The following applies: Escherichia coli, read-out: PD50/Treatment.
Series [3] has as its system β-lactamase-producing bacteria. The experiment in a line: Protection of ceforanide and amoxicillin from destruction. The following applies: in vitro and in vivo, in combination.
The conditions of series [4]: mouse, in vivo, po.
Series [5] is described as follows: in vivo. The following applies: mouse, po; for concentration at 0.5 h / concentration at 1 h / concentration at 2 h: Blood Level.
Series [6] in a line: Blood levels and half-life of BL-P2024 after oral administration to mice (Table 5). Type of series: in vivo. As to conditions: 100 mg/kg oral.
The nature of the next series: Storage stability. As to conditions: 23° C., seven days. The class given is physicochemical.
A short description of a further series: Hygroscopicity. The class given is physicochemical. As to conditions: solid.
Series [7] deals with β-lactamase-producing strains. The following applies: in vitro and in vivo; cited from earlier work.
[8] abbreviates: Klebsiella aerogenes, 4 strains, geometric mean, read-out: MIC.

As for `CC1(C)[C@H](C(=O)O)N2C(=O)[C@@H](Br)[C@H]2S1(=O)=O` [(2S,5R,6S)-6β-Bromo-3,3-dimethyl-7-oxo-4-thia-1-azabicyclo[3.2.0]heptane-2-carboxylic acid, S,S-dioxide], the “inhibition of β-lactamase” value with β-lactamase enzyme RTEM is reported as “inhibit the action of the β-lactamase enzyme RTEM”.
What is called MIC is the least concentration at which growth counts as inhibited. Regarding `NCc1ccccc1CC(=O)N[C@@H]1C(=O)N2C(C(=O)O)=C(CSc3nnnn3CC(=O)O)CS[C@H]12` [Ceforanide], the MIC is > 125 µg/mL in the series on C. freundii; > 125 µg/mL with Citrobacter sp.; > 125 µg/mL in the series on E. aerogenes (5 strains, geometric mean); > 125 µg/mL against E. aerogenes (Klebsiella aerogenes); 3.4 µg/mL (≈ 6.54 µM) with E. aerogenes (setting [8]); 22.6 µg/mL (≈ 43.5 µM) in the series on E. cloacae (1 strain (first line)). Also, the MIC against E. cloacae (1 strain (third line)) was > 125 µg/mL; in the series on E. cloacae (14 strains, geometric mean), > 125 µg/mL; against M. morganii (Morganella morganii, 8 strains (second line)), > 125 µg/mL; in the series with M. morganii (Morganella morganii, 8 strains (first line), read-out: MIC), 65 µg/mL (≈ 125 µM); in the series with P. aeruginosa, 125 µg/mL (≈ 241 µM); against P. mirabilis (1 strain), 0.25 µg/mL (≈ 0.481 µM). Further, the MIC in the series on P. mirabilis (3 strains, geometric mean) was 25.4 µg/mL (≈ 48.9 µM); with P. rettgeri (1 strain (first line)) it was 0.06 µg/mL (≈ 0.115 µM); in the series on P. rettgeri (1 strain (second line)), 16 µg/mL (≈ 30.8 µM); with P. stuartii (1 strain), 0.35 µg/mL (≈ 0.674 µM); against P. stuartii (4 strains, geometric mean), 45 µg/mL (≈ 86.6 µM); in the series on P. vulgaris, > 125 µg/mL. Besides, the minimum inhibitory concentration (MIC) with P. vulgaris (1 strain, read-out: MIC) was 0.5 µg/mL (≈ 0.962 µM); in the series with P. vulgaris (9 strains, geometric mean, read-out: MIC) it was 85 µg/mL (≈ 164 µM); in the series with S. faecalis, > 125 µg/mL; with S. marcescens (6 strains, geometric mean), 125 µg/mL (≈ 241 µM); in the series on S. marcescens (Serratia marcescens), 125 µg/mL (≈ 241 µM).
The term AUC denotes concentration integrated over time. As for `CC1(CCl)C(C(=O)O)N2C(=O)CC2S1(=O)=O` (stereo not drawn) [BL-P2013, Potassium 2β-Chloromethyl-2α-methylpenam-3α-carboxylate Sulfone], the MIC in the series with B. thetaiotaomicron is 63 µg/mL; against Bacteroides species (A20927-1, beta-lactamase -), 63 µg/mL; in the series on Bacteroides species (A20933, beta-lactamase +), 63 µg/mL; in the series on C. freundii (1 strain, read-out: MIC), > 125 µg/mL; with Citrobacter sp. (1 strain, read-out: MIC) it was 16 µg/mL; with E. aerogenes (Klebsiella aerogenes, 1 strain, read-out: MIC) it was 16 µg/mL. The MIC was > 125 µg/mL in the series on E. aerogenes (setting [8]); > 125 µg/mL with E. aerogenes (Klebsiella aerogenes, 5 strains, geometric mean, read-out: MIC); > 125 µg/mL against M. morganii (8 strains (second line)); 125 µg/mL in the series with P. aeruginosa (16 strains, geometric mean, read-out: MIC); 125 µg/mL in the series with P. stuartii (1 strain); 125 µg/mL against P. stuartii (4 strains, geometric mean). Also, the MIC with S. marcescens (6 strains, geometric mean) turned out to be 125 µg/mL; with S. marcescens (Serratia marcescens, 10 strains, geometric mean, read-out: MIC), 125 µg/mL. In addition, the “Blood Level” value in [1] worked out at 4600 ng/mL; in series [4] (38 mg/kg, 0.5 h) it was 1800 ng/mL; in series [4] (38 mg/kg, 1 h) it was 1400 ng/mL. In addition, the AUC in the series “in vivo [2]” (38 mg/kg) and in “in vivo [5]” (38 mg/kg) was 4400 ng·h/mL each time. Besides, the concentration at 0.5 h in “in vivo [2]” (38 mg/kg) and in “in vivo [5]” (38 mg/kg) was 2300 ng/mL in each case. In the series “in vivo [2]” (38 mg/kg), this compound showed a concentration at 2 h of 1600 ng/mL. Further, in the series on E. coli A9675 (A9675, po), the ED50 is > 50 mg/kg. The “protection of ceforanide and amoxicillin from destruction by β-lactamase-producing bacteria” value in series [3] was “protected ceforanide and amoxicillin from destruction by β-lactamase-producing bacteria in vitro and in vivo”.
For `CC1(C)S[C@@H]2[C@H](NC(=O)[C@H](N)c3ccc(O)cc3)C(=O)N2[C@H]1C(=O)O` [Amoxicillin, reference compound], the MIC with B. thetaiotaomicron turned out to be 16 µg/mL; with Bacteroides species (A20929, beta-lactamase +), 16 µg/mL; in the series with Bacteroides species (A20931, beta-lactamase +) it was 16 µg/mL; in the series with Bacteroides species (A21954, beta-lactamase +) it was 16 µg/mL. The AUC in the series “in vivo [2]” (50 mg/kg) turned out to be 9500 ng·h/mL; in “in vivo [5]” (50 mg/kg), 15400 ng·h/mL. Moreover, the concentration at 0.5 h in the series “in vivo [2]” (50 mg/kg) turned out to be 7000 ng/mL; in “in vivo [5]” (50 mg/kg) it was 11000 ng/mL. Besides, the concentration at 1 h in “in vivo [2]” (50 mg/kg) is 5000 ng/mL; in “in vivo [5]” (50 mg/kg), 9000 ng/mL. Also, the concentration at 2 h in the series “in vivo [2]” (50 mg/kg) turned out to be 2200 ng/mL; in “in vivo [5]” (50 mg/kg) it was 3100 ng/mL. The “Blood Level” value was determined as 7000 ng/mL in series [4] (50 mg/kg, 0.5 h); 5000 ng/mL in series [4] (50 mg/kg, 1 h); 2200 ng/mL in [4] (50 mg/kg, 2 h).
As for `CC(C)(C)C(=O)OCOC(=O)C1N2C(=O)CC2S(=O)(=O)C1(C)CCl` (stereo not drawn) [BL-P2024, Pivaloyloxymethyl 2β-Chloromethyl-2α-methylpenam-3α-carboxylate Sulfone], the “Blood Level” value in [6] (15 min) came out at 12300 ng/mL; in [6] (30 min), 12200 ng/mL; in series [6] (60 min), 9400 ng/mL; in [6] (120 min), 5700 ng/mL.
Consider `CC1(CCl)C(C(=O)O)N2C(=O)CC2S1(=O)=O` (stereo not drawn) [BL-P2013 Free Acid, 2β-chloromethyl-2α-methylpenam-3α-carboxylic acid sulfone], for which the stability on storage entry in the series “Storage stability” is “unstable when stored at 23 °C for seven days”. Also, in the series “Hygroscopicity”, the hygroscopicity result is “hydroscopic”.
Take `CC1(C)S[C@@H]2[C@H](NC(=O)[C@H](N)c3ccccc3)C(=O)N2[C@H]1C(=O)O` [Ampicillin, reference compound]: in the series “in vivo [2]” (50 mg/kg), the AUC was 6200 ng·h/mL, the concentration at 0.5 h amounted to 4000 ng/mL, the concentration at 1 h amounted to 3300 ng/mL and the concentration at 2 h was determined as 1700 ng/mL. In addition, the ED50 with E. coli A9675 (po, E. coli A9675, p.o., pro-drugs and mixtures 50:38) is > 400 mg/kg. Besides, in series [4] (50 mg/kg, 0.5 h), the “Blood Level” value came out at 3200 ng/mL. The “Blood Level” value in [4] (50 mg/kg, 1 h) worked out at 2600 ng/mL. In the series “in vivo [5]” (50 mg/kg), this compound registered an AUC of 6200 ng·h/mL, a concentration at 0.5 h of 4000 ng/mL, a concentration at 1 h of 3300 ng/mL and a concentration at 2 h of 1700 ng/mL.
With `CC1(C)[C@H](C(=O)O)N2C(=O)C[C@H]2S1(=O)=O` [CP-45899], in series [7], the potentiation of ampicillin entry is “potentiates the in vitro and in vivo activities of ampicillin versus β-lactamase-producing strains”.
